# Experimental data reported in US9982005B2, “Macrolides and methods of their preparation and use” (President and Fellows of Harvard College, priority 2013, dated 2018).
# Read-outs that look alike come from different tables or passages of the source.
# Assays:
# Assay type in all cases: cell-based
# [1] = test system: HI175 H. influenzae ATCC49247; assay: broth dilution MIC, H. influenzae HI175; conditions: Haemophilus influenzae
# Excerpt: (§1) We have collected MIC data for a total of 50 novel macrolides that this platform has produced against over 21 unique strains of B. subtilis, E. coli, S. aureus, S. pneumoniae, and H. influenzae, including several multidrug-resistant strains, with a special focus on macrolide resistant mechanisms (vide supra). Azithromycin was included as a control macrolide. CLSI standard procedures for broth dilution MIC determination were used. […] These genotypes can be constitutive or inducible. The finding that C4-epi (unnatural) isomers of the “azaketolide” macrolide class have enhanced activities relative to C4 natural isomers is very exciting.
# [2] = test system: SA101 S. aureus ATCC29213; assay: broth dilution MIC, S. aureus SA101; conditions: Staphylococcus aureus, ATCC29213, SA101 S. aureus ATCC29213; read-out: MIC
# Procedure, shortened: (§2)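 Broth dilution (CLSI standard) gave the minimum inhibitory concentrations. Resistance genotypes in the panel can be constitutive or inducible.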
# [3] = test system: SA1708 S. aureus ermA positive msrA negative; assay: broth dilution MIC, S. aureus SA1708; conditions: Staphylococcus aureus
# Excerpt: as §1
# [4] = test system: BS1723 B. subtilis BS168 WT wild type; assay: broth dilution MIC, B. subtilis BS1723; conditions: Bacillus subtilis, BS1723 B. subtilis BS168 WT wild type; read-out: MIC
# Procedure, shortened: as §2
# S. aureus strains = assay: MIC against S. aureus strains (Table M7); conditions: for MIC: Staphylococcus aureus
# Procedure, shortened: as §2
# [5] = test system: Spn1509 S. pneumoniae ermB positive mefA negative; assay: broth dilution MIC, S. pneumoniae Spn1509; conditions: Streptococcus pneumoniae; Spn1509 S. pneumoniae ermB positive mefA negative; read-out: MIC
# Excerpt: as §1
# H. influenzae strains = assay: MIC against H. influenzae strains (Table M8); conditions: Haemophilus influenzae
# Procedure, shortened: as §2
# [6] = test system: Spn1427 S. pneumoniae ermB positive mefA negative; assay: broth dilution MIC, S. pneumoniae Spn1427; conditions: Streptococcus pneumoniae
# Excerpt: as §1
# A. baumannii strains = assay: MIC against A. baumannii strains (Table M8); conditions: Acinetobacter baumannii, BAA747, A. baumannii BAA747-1
# [7] = test system: SA557 S. aureus ermA unknown msrA positive; assay: broth dilution MIC, S. aureus SA557; conditions: Staphylococcus aureus; SA557 S. aureus ermA unknown msrA positive; read-out: MIC
# Excerpt: as §1
# [8] = test system: SA183 S. aureus ermA positive msrA unknown; assay: broth dilution MIC, S. aureus SA183; conditions: Staphylococcus aureus
# Excerpt: as §1
# [9] = test system: Spn1537 S. pneumoniae ermB positive mefA positive; assay: broth dilution MIC, S. pneumoniae Spn1537; conditions: Streptococcus pneumoniae
# Excerpt: as §1
# EC882 E. coli imp = assay: broth dilution MIC, E. coli EC882; conditions: Escherichia coli
# Procedure, shortened: as §2
# EC878 E. coli tolC = assay: broth dilution MIC, E. coli EC878; conditions: Escherichia coli
# Procedure, shortened: as §2
# E. coli strains = assay: MIC against E. coli strains (Table M7); conditions: Escherichia coli, ATCC25922, E. coli ATCC 25922
# Procedure, shortened: as §2
# [10] = test system: SA1707 S. aureus ermA negative msrA positive; assay: broth dilution MIC, S. aureus SA1707; conditions: Staphylococcus aureus
# Excerpt: as §1
# [11] = test system: Spn160 S. pneumoniae ermB unknown mefA positive; assay: broth dilution MIC, S. pneumoniae Spn160; conditions: Streptococcus pneumoniae
# Excerpt: as §1
# EC107 E. coli ATCC25922 = assay: broth dilution MIC, E. coli EC107; conditions: Escherichia coli, read-out: MIC
# Procedure, shortened: as §2
# K. pneumoniae strains = assay: MIC against K. pneumoniae strains (Table M8); conditions: Klebsiella pneumoniae, K. pneumoniae 10031
# [12] = test system: Spn 106 S. pneumonia ATCC49619; assay: broth dilution MIC, S. pneumoniae Spn 106; conditions: Streptococcus pneumoniae
# Excerpt: as §1
# [13] = test system: SA418 S. aureus ermA negative msrA positive; assay: broth dilution MIC, S. aureus SA418; conditions: Staphylococcus aureus
# Excerpt: as §1
# S. pneumoniae strains = assay: MIC against S. pneumoniae strains (Tables M7, M8); conditions: for MIC: Streptococcus pneumoniae
# Excerpt: CLSI standard procedures for broth dilution MIC determination were used. […] These genotypes can be constitutive or inducible.
# E. faecalis strains = assay: MIC against E. faecalis strains (Table M8); conditions: Enterococcus faecalis, E. faecalis 29212
# BS1725 B. subtilis ermC = assay: broth dilution MIC, B. subtilis BS1725; conditions: Bacillus subtilis, BS1725 B. subtilis ermC (+ery)
# Procedure, shortened: as §2
# HI281 H. influenzae = assay: broth dilution MIC, H. influenzae HI281; conditions: Haemophilus influenzae
# Excerpt: as §1
# [14] = test system: SA506 S. aureus ermA positive msrA unknown; assay: broth dilution MIC, S. aureus SA506; conditions: Staphylococcus aureus
# Excerpt: as §1
# E. coli (MC4100) = assay: MIC, E. coli MC4100; conditions: Escherichia coli, round 1, read-out: MIC
# Procedure, shortened: as §2
# [15] = test system: S. aureus (Newman, clinical isolate); assay: MIC, S. aureus Newman; conditions: Staphylococcus aureus, S. aureus (Newman, clinical isolate), round 1
# Procedure, shortened: as §2
# [16] = test system: Spn1533 S. pneumoniae ermB positive mefA positive; assay: broth dilution MIC, S. pneumoniae Spn1533; conditions: Streptococcus pneumoniae
# Excerpt: as §1
# [17] = ATCC29213, S. aureus ATCC 29213, read-out: MIC S. aureus (ATCC 29213)
# [18] = S. aureus 506, read-out: MIC S. aureus (506)
# [19] = S. aureus 1708, read-out: MIC S. aureus (1708)
# [20] = USA300, S. aureus USA300, read-out: MIC S. aureus (USA300)
# [21] = H. influenzae 49247, read-out: MIC H. influenzae (49247)
# [22] = H. influenzae 49766, read-out: MIC H. influenzae (49766)
# [23] = Spn 106 S. pneumonia ATCC49619, read-out: MIC
# [24] = S. pneumoniae 160, read-out: MIC S. pneumonae (160)
# [25] = S. pneumoniae 1509, read-out: MIC S. pneumoniae (1509)
# [26] = S. pneumoniae 1533, read-out: MIC S. pneumoniae (1533)
# [27] = S. pneumoniae 1537, read-out: MIC S. pneumoniae (1537)
# [28] = read-out: MIC S. pneumoniae (49619)
# [29] = Spn160 S. pneumoniae ermB unknown mefA positive, read-out: MIC
# [30] = S. pneumoniae 49619, read-out: MIC S. pneumoniae (49619)
SMILES,MIC [1] [mg/L],MIC [2] [mg/L],MIC [3] [mg/L],MIC (S. aureus strains; [17]) [mg/L],MIC (S. aureus strains; [18]) [mg/L],MIC (S. aureus strains; [19]) [mg/L],MIC (S. aureus strains; [20]) [mg/L],MIC [5] [mg/L],MIC (H. influenzae strains; [21]) [mg/L],MIC (H. influenzae strains; [22]) [mg/L],MIC [6] [mg/L],MIC (A. baumannii strains) [mg/L],MIC [7] [mg/L],MIC [8] [mg/L],MIC [9] [mg/L],MIC [10] [mg/L],"MIC [12, 23] [mg/L]",MIC [13] [mg/L],MIC (HI281 H. influenzae) [mg/L],MIC [14] [mg/L],further results
CC[C@H]1OC(=O)[C@H](C)C(=O)[C@H](C)[C@@H](O[C@@H]2OC(C)CC(N(C)C)C2O)[C@](C)(OC)C[C@@H](C)CN[C@H](C)[C@H]2N(CCCCn3cc(-c4ccccn4)nn3)C(=O)O[C@]12C (stereo partly shown) [FSM-20706],0.5 to 2,2,4,2,> 32,1,2,0.5 to 2,0.5,2,> 32,32,2,> 32,> 32,4,0.0156 to 0.0312,2,4,> 32,MIC [4]: 1 mg/L; MIC (EC882 E. coli imp): 0.0625 mg/L; MIC (EC878 E. coli tolC): 0.5 mg/L; MIC (E. coli strains): 8 mg/L; MIC [11]: 0.0625 to 0.125 mg/L; MIC (EC107 E. coli ATCC25922): 8 mg/L; MIC (K. pneumoniae strains): 4 mg/L; MIC (S. pneumoniae strains; [24]): 0.125 mg/L; MIC (S. pneumoniae strains; [25]): 4 mg/L; MIC (S. pneumoniae strains; [26]): > 32 mg/L; MIC (S. pneumoniae strains; [27]): > 32 mg/L; MIC (S. pneumoniae strains; [28]): ≤ 0.0625 mg/L; MIC (E. faecalis strains): 0.25 mg/L; MIC (BS1725 B. subtilis ermC): 16 mg/L
CC[C@H]1OC(=O)C(C)(F)C(=O)[C@H](C)[C@@H](O[C@@H]2OC(C)CC(N(C)C)C2O)[C@](C)(OC)C[C@@H](C)CN[C@H](C)[C@H]2N(CCCCn3cc(-c4ccccn4)nn3)C(=O)O[C@]12C (stereo partly shown) [FSM-20738],0.5 to 8,0.5 to 1,2,0.5,> 32,0.5,1,0.5 to 8,0.5,4,> 32,32,1,> 32,> 32,1,0.0156 to 0.25,1,4 to 32,> 32,MIC [4]: 0.25 mg/L; MIC (E. coli (MC4100)): 8 mg/L; MIC (EC882 E. coli imp): 0.0625 mg/L; MIC (EC878 E. coli tolC): 1 mg/L; MIC (E. coli strains): 8 mg/L; MIC [15]: 1 mg/L; MIC [11]: 0.0625 to 1 mg/L; MIC (EC107 E. coli ATCC25922): 8 mg/L; MIC (K. pneumoniae strains): 4 mg/L; MIC (S. pneumoniae strains; [25]): 2 mg/L; MIC (S. pneumoniae strains; [26]): > 32 mg/L; MIC (S. pneumoniae strains; [27]): > 32 mg/L; MIC (S. pneumoniae strains; read-out: MIC S. pneumonae (160)): ≤ 0.0625 mg/L; MIC (S. pneumoniae strains; [28]): ≤ 0.0625 mg/L; MIC (E. faecalis strains): 0.125 mg/L; MIC (BS1725 B. subtilis ermC): 4 mg/L
CC[C@H]1OC(=O)[C@H](C)C(=O)C[C@@H](O[C@@H]2OC(C)CC(N(C)C)C2O)[C@](C)(OC)C[C@@H](C)C(=O)N[C@H](C)[C@H]2N(CCCCn3cc(-c4ccccn4)nn3)C(=O)O[C@]12C (stereo partly shown) [FSM-20739],> 32,> 32,> 32,–,–,–,–,> 32,–,–,> 32,–,> 32,> 32,> 32,> 32,32,> 32,32,> 32,"MIC [16]: > 32 mg/L; MIC [11, 29]: > 32 mg/L"
CC[C@H]1OC(=O)[C@H](C)C(=O)[C@H](C)[C@@H](O[C@@H]2OC(C)CC(N(C)C)C2O)[C@](C)(OC)C[C@@H](C)C(=O)N[C@H](C)[C@H]2N(CCCCn3cc(-c4ccccn4)nn3)C(=O)O[C@]12C (stereo partly shown) [FSM-20781],> 32,> 32,> 32,–,–,–,–,> 32,–,–,> 32,–,> 32,> 32,> 32,> 32,8,> 32,32,> 32,"MIC [16]: > 32 mg/L; MIC [11, 29]: > 32 mg/L"
CC[C@H]1OC(=O)C(C)C(=O)[C@@H](C)[C@@H](O[C@@H]2OC(C)CC(N(C)C)C2O)[C@](C)(OC)C[C@@H](C)CN[C@H](C)[C@H]2N(CCCCn3cc(-c4cccc(N)c4)nn3)C(=O)O[C@]12C (stereo partly shown) [FSM-20789],4,2,2,2,> 32,2,4,1,2,8,8,32,2,> 32,> 32,4,–,4,8,> 32,"MIC [16]: > 32 mg/L; MIC (E. coli strains): 16 mg/L; MIC [11, 29]: 0.25 mg/L; MIC (K. pneumoniae strains): 4 mg/L; MIC ([12]; ATCC49619): 0.0625 mg/L; MIC (S. pneumoniae strains; [24]): 0.5 mg/L; MIC (S. pneumoniae strains; [25]): 4 mg/L; MIC (S. pneumoniae strains; [26]): > 32 mg/L; MIC (S. pneumoniae strains; [27]): > 32 mg/L; MIC (S. pneumoniae strains; [30]): 0.125 mg/L; MIC (E. faecalis strains): 0.5 mg/L"
CC[C@H]1OC(=O)C(C)(F)C(=O)[C@H](C)[C@@H](O[C@@H]2OC(C)CC(N(C)C)C2O)[C@](C)(OC)C[C@@H](C)CN[C@H](C)[C@H]2N(CCCCn3cc(-c4cccc(N)c4)nn3)C(=O)O[C@]12C (stereo partly shown) [FSM-20795],1 to 2,0.25 to 0.5,0.5,0.5,> 32,0.25,1,0.125 to 0.25,0.5,4,1 to 2,16,0.25 to 0.5,> 32,32,0.5 to 1,≤ 0.0156,0.5 to 1,4 to 8,> 32,"MIC S. aureus (1708) (S. aureus strains; S. aureus 1708): 0.5 mg/L; MIC (S. aureus strains; S. aureus 183, read-out: MIC S. aureus (183)): > 32 mg/L; MIC [16]: 16 mg/L; MIC (E. coli strains): 4 mg/L; MIC [11, 29]: 0.0312 mg/L; MIC (K. pneumoniae strains): 2 mg/L; MIC S. pneumoniae (1509) (S. pneumoniae strains; S. pneumoniae 1509): 1 mg/L; MIC (S. pneumoniae strains; [24]): ≤ 0.0625 mg/L; MIC (S. pneumoniae strains; [25]): 0.5 mg/L; MIC (S. pneumoniae strains; [26]): > 32 mg/L; MIC (S. pneumoniae strains; [27]): > 32 mg/L; MIC (S. pneumoniae strains; [30]): ≤ 0.0625 mg/L; MIC (E. faecalis strains): 0.125 mg/L"
